US20240174690A1, “ANNULATED 2-AMINO-3-CYANO THIOPHENES AND DERIVATIVES FOR THE TREATMENT OF CANCER” (BOEHRINGER INGELHEIM INTERNATIONAL GMBH, priority 2021, published 2024)

Assays:
A375 cells = assay: A375 CTG proliferation assay (120 h) (melanoma, wt, B-Raf mutant, negative control); type: cell-based; details: Homo sapiens, A-375, CTG 120 h
Method: A375 CTG Proliferation Assay (120 h) (Melanoma, Wt, B-Raf Mutant, Negative Control)
A375 cells (ATCC CRL-1619) are dispensed into 384-well plates, flat and clear bottom (Greiner, PNr. 781091) at a density of 300 cells per well in 60 μL DMEM (Sigma 06429)+10% Fetal Calf Serum (HyClone, PNr.: SH30084.03) and incubated at 37° C. in a CO2 incubator overnight. The next day, compounds (10 mM stock in DMSO) are added at logarithmic dose series using the HP Digital Dispenser D300 (Tecan), including DMSO controls. Plates are incubated for 120 h, and cell viability is measured using CellTiter-Glo luminescent cell viability reagent (Promega product code G7570). Viability (stated as percent of control) is defined as relative luminescence units RLU of each well divided by the RLU of cells in DMSO controls. IC50 values are determined from viability measurements by non-linear regression using a four-parameter model.

Caco-2 cell monolayers = assay: Caco-2 assay (permeability PappAB, PappBA, efflux ratio); type: in vitro ADME; details: 10 μM test compound, pH 7.4
Procedure, shortened: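 Bidirectional permeability (apical-to-basolateral and reverse) through polarized Caco-2 monolayers, BSA 0.25% on each side, 37 °C. Donor and receiver sampled at 0-90 min after 25-30 min preincubation, analysed by HPLC/MS/MS. Apparent permeabilities derived from transfer rate normalised to area and t=0 donor concentration; ER taken as PappBA over PappAB.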

Structure (SMILES)	IC50 (A375 cells) [nM]	Caco PappAB (Caco-2 cell monolayers; apical to basolateral) [×10⁻⁶ cm/s]	Caco ER (Caco-2 cell monolayers; efflux ratio PappBA/PappAB)
C[C@H](Oc1cc(N2CCOC2=O)nc(-c2noc3c2CCC[C@@]32CCCc3sc(N)c(C#N)c32)n1)[C@@H]1CCCN1C [II-143]	> 3000		
C[C@H](Oc1cc(-n2ccc(C(=O)N[C@H]3CCOC3)n2)nc(-c2noc3c2CCC[C@@]32CCCc3sc(N)c(C#N)c32)n1)[C@@H]1CCCN1C [II-193]		3.7	8.1

Second part, led by results:

IC50 (A375 cells) [nM]	Structure (SMILES)	Caco PappAB (Caco-2 cell monolayers; apical to basolateral) [×10⁻⁶ cm/s]	Caco ER (Caco-2 cell monolayers; efflux ratio PappBA/PappAB)
324	C[C@H](Oc1cc(-n2cc(-c3cncs3)nn2)nc(-c2noc3c2CCC[C@@]32CCCc3sc(N)c(C#N)c32)n1)[C@@H]1CCCN1C [II-125]		
1310	C[C@H](Oc1cc(-n2ccc(-c3cnccn3)n2)nc(-c2noc3c2CCC[C@@]32CCCc3sc(N)c(C#N)c32)n1)[C@@H]1CCCN1C [II-130]		
1380	C[C@H](Oc1cc(-c2cccc(C(N)=O)c2)nc(-c2noc3c2CCC[C@@]32CCCc3sc(N)c(C#N)c32)n1)[C@@H]1CCCN1C [II-133]		
